Data from publication PMC8023582 (ACS Chemical Biology, 2021).

Target: T1, RORα (Homo sapiens, UniProt P35398)
T1 sequence (P35398 272-510 limits assumed): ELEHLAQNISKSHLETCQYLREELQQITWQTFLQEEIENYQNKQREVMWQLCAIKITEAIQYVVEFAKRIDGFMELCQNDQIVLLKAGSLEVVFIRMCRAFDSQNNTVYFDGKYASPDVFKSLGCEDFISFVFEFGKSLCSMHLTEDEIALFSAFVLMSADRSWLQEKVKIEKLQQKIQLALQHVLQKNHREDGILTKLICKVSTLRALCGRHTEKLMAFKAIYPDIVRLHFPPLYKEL
Test: TR-FRET coactivator recruitment assay on RORα
Type: biochemical
Details: read-out: RORα: cofactor recruitment IC50; Figure 3B

- IC50: 190 ± 50 nM
Structure (SMILES): CC(C)CCC[C@@H](C)[C@H]1CC[C@H]2[C@@H]3CC=C4C[C@@H](OS(=O)(=O)O)CC[C@]4(C)[C@H]3CC[C@]12C [Chol-SO4, sulfated cholesterol]
